Results on one molecule are retold here after patent US20090029366A1 (priority 2007, published 2009).

The assay has as its target T1, human HCN1 (Homo sapiens, UniProt O60741).
T1 construct: expressed in transfected cells; host or cells: HEK-293H
T1 sequence (O60741 1-890): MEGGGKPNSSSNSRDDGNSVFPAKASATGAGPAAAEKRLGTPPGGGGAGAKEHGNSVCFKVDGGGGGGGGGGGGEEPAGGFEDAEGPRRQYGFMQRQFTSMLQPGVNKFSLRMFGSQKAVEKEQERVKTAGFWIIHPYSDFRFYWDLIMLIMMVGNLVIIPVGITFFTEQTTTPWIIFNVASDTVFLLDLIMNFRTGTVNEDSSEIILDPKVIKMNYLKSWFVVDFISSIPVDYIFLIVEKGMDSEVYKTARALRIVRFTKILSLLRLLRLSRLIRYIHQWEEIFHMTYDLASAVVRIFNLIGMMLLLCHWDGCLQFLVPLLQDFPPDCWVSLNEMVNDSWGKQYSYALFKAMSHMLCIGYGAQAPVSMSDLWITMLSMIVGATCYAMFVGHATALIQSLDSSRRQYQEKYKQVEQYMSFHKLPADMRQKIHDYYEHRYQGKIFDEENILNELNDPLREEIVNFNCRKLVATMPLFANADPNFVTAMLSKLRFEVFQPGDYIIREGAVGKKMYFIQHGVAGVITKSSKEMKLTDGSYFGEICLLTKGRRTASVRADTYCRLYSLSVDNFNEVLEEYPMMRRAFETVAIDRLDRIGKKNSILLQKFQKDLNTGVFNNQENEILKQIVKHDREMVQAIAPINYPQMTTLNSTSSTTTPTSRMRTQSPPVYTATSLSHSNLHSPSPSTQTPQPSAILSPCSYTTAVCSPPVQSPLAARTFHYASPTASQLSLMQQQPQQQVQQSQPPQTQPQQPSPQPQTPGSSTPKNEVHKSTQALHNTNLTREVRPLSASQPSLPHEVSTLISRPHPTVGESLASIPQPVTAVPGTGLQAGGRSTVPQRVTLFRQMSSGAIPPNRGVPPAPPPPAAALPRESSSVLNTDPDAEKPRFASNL
Put plainly: MPSD FLIPR 384 well hyperpolarization assay, HCN1. It is filed as cell-based. As to the method: HEK-293H cells stably expressing human HCN1, HCN2, or HCN3 channel were plated at a density of 45-50×10^3 cells/well in a 384 well format fluorescent imaging plate reader system (FLIPR®^384) in 50 μl/well of DMEM supplemented with 10% fetal bovine serum and penicillin/streptomycin. The cells were cultured for 24-48 hours in a 5% CO2/air humidified incubator at 37° C.
The cells seeded on the microtiter plates were incubated in 50 μl HBSS, as described in Example 2. Optionally, HBSS was supplemented with about 25 mM of KCl to further enhance the assay window. A membrane potential sensitive dye (MPSD), Component-A of the Membrane Potential Assay Kit, (Product No. R-8034, Molecular Devices Corporation of Sunnyvale, Calif.) was dissolved in the HBSS solution (1 vial/0.5 L). The excess saline was removed to fit the residual volume of about 1 μl to 5 μl. […]
Membrane potentials were measured at room temperature (21°-23°) for each of the above-described saline conditions using a fluorescent imaging plate reader system (FLIPR®, Molecular Devices of Sunnyvale, Calif.). […]
HEK-293H cells stably expressing human HCN1 channel were plated as described in Example 3 above. […] The change in fluorescence (ΔF) was measured for a total assay time of about 180 seconds. […]

Consider `CCN(c1ccccc1)c1cc(=NC)n(C)c(C)n1.Cl` [ZD7288], for which the “blockade of hyperpolarization (change in fluorescence)” value (30 μM ZD7288, HEK-293H HCN1, about 180 seconds) is on record as “effectively blocked hyperpolarization”. Besides, under “50 μM ZD7288, cells expressing HCN1”, the “blockade of hyperpolarization (change in fluorescence), FIG. 5 legend” value is given as “effectively blocked hyperpolarization”.
